Measured values published in US9169247B2, “Tetrahydro-beta-carboline derivatives, synthesis and use thereof” (Southern Research Institute, priority 2009, dated 2015).

Columns and labels:
SW1116 = experiment: Growth assay (Cell Titer Glo); assay type: cell-based; settings: Homo sapiens, SW 1116; SW1116 colon; 72 h
ZR75-1 = experiment: Growth assay (Cell Titer Glo); assay type: cell-based; settings: Homo sapiens, ZR-75-1; ZR75-1 breast; 72 h

COC(=O)[C@H]1Cc2c([nH]c3ccccc23)[C@H](c2cc(OC)ccc2OC)N1C(=O)CCl [Compound 2f, Methyl (1S,3R)-1-(2,5-dimethoxyphenyl)-2-(2-chloroacetyl)-2,3,4,9-tetrahydro-1H-β-carboline-3-carboxylate]
IC50 (SW1116): 4.4 µM | IC50 (ZR75-1): 1.2 µM
